Assay results taken from ChEMBL document CHEMBL3132769, “Fragment growing to retain or alter the selectivity of anchored kinase hinge-binding fragments” (Medchemcomm, 2014).

Experiments:
[1] = target: Casein kinase I isoform alpha (Homo sapiens) (UniProt P48729); assay: Inhibition of human full length CSNK1A1 expressed in baculovirus assessed as substrate phosphorylation using fluorescence-labelled peptides as substrate at 420 uM after 90 mins by microfluidic peptide phosphorylation assay
[2] = target: T1, Serine/threonine-protein kinase Nek2 (Homo sapiens) (UniProt P51955); assay: Inhibition of human full length NEK2 expressed in baculovirus assessed as substrate phosphorylation using fluorescence-labelled peptides as substrate at 1000 uM after 90 mins by microfluidic peptide phosphorylation assay
T1 sequence (whole entry): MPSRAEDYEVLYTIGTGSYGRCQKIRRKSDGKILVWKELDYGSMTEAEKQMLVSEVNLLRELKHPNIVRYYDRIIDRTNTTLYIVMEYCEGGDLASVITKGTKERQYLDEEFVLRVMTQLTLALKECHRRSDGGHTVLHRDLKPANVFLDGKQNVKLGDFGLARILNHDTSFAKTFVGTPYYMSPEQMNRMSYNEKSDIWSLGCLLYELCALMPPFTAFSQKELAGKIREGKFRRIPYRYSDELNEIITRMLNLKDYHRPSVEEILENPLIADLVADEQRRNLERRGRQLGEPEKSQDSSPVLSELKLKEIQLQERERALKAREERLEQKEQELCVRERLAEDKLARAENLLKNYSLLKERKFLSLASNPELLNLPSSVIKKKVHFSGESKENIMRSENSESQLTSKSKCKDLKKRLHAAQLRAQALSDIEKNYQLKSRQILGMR

[3] = target: Casein kinase I isoform delta (Homo sapiens) (UniProt P48730); assay: Inhibition of human CK1D catalytic domain expressed in Escherichia coli cell assessed as substrate phosphorylation using fluorescence-labelled peptides as substrate at 2 uM after 90 mins by microfluidic peptide phosphorylation assay
[4] = target: Ribosomal protein S6 kinase alpha-5 (Homo sapiens) (UniProt O75582); assay: Inhibition of human full length MSK1 expressed in baculovirus assessed as substrate phosphorylation using fluorescence-labelled peptides as substrate at […] after 90 mins by microfluidic peptide phosphorylation assay
[5] = target: T2, Serine/threonine-protein kinase D2 (Homo sapiens) (UniProt Q9BZL6); assay: Inhibition of human full length PKD2 expressed in baculovirus assessed as substrate phosphorylation using fluorescence-labelled peptides as substrate at 8 uM after 90 mins by microfluidic peptide phosphorylation assay
T2 sequence (whole entry): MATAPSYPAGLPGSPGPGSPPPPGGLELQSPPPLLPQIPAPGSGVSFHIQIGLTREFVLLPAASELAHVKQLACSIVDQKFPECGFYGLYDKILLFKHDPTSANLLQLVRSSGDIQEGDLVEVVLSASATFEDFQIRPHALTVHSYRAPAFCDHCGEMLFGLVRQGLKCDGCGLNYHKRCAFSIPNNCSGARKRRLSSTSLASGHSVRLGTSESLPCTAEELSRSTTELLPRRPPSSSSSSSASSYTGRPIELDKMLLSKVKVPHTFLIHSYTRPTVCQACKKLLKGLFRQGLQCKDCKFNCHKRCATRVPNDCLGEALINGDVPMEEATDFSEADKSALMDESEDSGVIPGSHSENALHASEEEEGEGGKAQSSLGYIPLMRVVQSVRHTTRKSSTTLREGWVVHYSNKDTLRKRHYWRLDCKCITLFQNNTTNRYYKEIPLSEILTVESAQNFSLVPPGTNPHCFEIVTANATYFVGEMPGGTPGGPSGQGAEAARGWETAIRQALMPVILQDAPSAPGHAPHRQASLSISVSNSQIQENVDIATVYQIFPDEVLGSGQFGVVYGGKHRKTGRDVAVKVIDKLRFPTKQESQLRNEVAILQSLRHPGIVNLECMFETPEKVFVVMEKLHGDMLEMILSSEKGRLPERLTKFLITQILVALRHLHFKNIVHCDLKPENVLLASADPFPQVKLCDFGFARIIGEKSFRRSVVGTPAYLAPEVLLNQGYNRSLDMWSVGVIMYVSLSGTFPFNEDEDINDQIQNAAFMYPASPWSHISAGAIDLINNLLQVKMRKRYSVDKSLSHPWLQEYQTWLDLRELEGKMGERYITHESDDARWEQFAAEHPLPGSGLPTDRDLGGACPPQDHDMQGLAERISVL

[6] = target: T3, Serine/threonine-protein kinase D3 (Homo sapiens) (UniProt O94806); assay: Inhibition of human full length PKD3 expressed in baculovirus assessed as substrate phosphorylation using fluorescence-labelled peptides as substrate at 8 uM after 90 mins by microfluidic peptide phosphorylation assay
T3 sequence (whole entry): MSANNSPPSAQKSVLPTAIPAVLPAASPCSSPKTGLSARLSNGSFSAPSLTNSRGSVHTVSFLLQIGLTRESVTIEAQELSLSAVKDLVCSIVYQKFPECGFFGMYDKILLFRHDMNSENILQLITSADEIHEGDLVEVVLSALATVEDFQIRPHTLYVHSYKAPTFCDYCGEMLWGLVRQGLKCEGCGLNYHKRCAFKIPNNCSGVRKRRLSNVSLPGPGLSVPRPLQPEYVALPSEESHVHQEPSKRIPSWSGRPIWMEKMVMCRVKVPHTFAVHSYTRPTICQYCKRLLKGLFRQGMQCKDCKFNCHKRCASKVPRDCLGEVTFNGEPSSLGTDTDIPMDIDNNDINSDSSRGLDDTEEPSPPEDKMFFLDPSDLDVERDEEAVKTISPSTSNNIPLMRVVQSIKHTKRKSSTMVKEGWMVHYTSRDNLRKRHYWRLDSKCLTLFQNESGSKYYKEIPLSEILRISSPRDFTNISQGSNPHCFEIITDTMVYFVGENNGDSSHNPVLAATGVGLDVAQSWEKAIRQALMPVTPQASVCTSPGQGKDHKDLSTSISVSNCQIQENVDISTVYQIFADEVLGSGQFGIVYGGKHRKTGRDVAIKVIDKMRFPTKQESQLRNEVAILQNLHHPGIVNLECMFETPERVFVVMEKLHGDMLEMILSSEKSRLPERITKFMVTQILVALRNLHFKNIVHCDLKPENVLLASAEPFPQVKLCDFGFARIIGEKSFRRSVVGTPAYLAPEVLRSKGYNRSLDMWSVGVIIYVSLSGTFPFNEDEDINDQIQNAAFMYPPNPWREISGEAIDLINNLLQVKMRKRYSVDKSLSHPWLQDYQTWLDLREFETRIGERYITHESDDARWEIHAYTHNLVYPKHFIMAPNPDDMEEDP

[7] = target: Dual specificity tyrosine-phosphorylation-regulated kinase 1A (Rattus norvegicus) (UniProt Q63470); assay: Inhibition of rat full length DYRK1a expressed in Escherichia coli cell assessed as substrate phosphorylation using fluorescence-labelled peptides as substrate at 8 uM after 90 mins by microfluidic peptide phosphorylation assay

Sequence of Casein kinase I isoform alpha (Homo sapiens) (P48729 2-337 limits assumed): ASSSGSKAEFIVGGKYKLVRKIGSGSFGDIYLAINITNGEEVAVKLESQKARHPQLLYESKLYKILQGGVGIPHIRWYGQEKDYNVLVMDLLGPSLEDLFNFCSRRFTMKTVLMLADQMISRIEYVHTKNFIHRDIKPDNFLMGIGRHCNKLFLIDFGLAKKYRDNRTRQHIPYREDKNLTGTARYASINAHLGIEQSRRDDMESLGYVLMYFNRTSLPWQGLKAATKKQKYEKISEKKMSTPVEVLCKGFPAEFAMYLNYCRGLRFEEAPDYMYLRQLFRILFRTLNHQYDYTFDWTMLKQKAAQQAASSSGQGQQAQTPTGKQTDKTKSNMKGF
Sequence of Casein kinase I isoform delta (Homo sapiens) (P48730 whole entry, looked up, the tested form may be a part, canonical isoform): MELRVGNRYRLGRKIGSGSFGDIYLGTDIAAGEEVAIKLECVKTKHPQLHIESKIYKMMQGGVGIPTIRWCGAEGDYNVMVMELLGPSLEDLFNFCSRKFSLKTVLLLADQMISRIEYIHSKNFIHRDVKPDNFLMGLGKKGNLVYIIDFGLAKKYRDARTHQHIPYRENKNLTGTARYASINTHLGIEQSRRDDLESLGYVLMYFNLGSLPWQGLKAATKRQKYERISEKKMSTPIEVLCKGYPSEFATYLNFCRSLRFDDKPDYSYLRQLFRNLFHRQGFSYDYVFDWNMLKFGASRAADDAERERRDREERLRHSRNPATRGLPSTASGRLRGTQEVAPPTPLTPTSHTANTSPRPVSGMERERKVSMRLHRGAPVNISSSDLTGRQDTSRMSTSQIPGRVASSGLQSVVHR
Sequence of Ribosomal protein S6 kinase alpha-5 (Homo sapiens) (O75582 whole entry, looked up): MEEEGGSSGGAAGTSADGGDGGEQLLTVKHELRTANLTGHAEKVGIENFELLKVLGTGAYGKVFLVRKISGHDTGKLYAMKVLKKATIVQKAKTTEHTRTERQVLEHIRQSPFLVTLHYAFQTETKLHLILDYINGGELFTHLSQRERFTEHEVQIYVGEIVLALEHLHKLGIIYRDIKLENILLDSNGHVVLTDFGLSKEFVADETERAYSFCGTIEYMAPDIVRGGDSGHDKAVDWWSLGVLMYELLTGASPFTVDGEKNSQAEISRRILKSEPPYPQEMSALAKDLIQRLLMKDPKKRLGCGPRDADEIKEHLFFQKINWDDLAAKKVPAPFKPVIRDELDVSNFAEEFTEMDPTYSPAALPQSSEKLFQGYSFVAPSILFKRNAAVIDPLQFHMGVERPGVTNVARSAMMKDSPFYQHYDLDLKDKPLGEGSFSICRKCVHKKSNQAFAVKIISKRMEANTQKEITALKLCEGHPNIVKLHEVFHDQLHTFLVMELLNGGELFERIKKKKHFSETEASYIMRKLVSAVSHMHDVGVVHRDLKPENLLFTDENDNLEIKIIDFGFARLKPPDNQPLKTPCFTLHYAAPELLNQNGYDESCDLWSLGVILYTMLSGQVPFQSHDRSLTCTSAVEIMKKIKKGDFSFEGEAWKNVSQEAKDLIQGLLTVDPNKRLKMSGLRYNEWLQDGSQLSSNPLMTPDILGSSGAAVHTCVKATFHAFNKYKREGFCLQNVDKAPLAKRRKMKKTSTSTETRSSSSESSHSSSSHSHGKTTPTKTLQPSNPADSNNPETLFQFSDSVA

c1nc(N2CCOCC2)c2nc[nH]c2n1
inhibition [1]: 60.5%

c1cnc2[nH]ccc2c1
inhibition [2]: 2.5%

NC1CCN(c2ncnc3[nH]ccc23)CC1
inhibition [3]: 0%

COC(=O)c1cnc(Nc2cnc(C#N)cn2)cc1NCC1CCNCC1
inhibition [4]: 8%

NCC1CCN(c2ncnc3[nH]ccc23)CC1
inhibition [5]: 28.5%
inhibition [6]: 0%
inhibition [7]: 54%
